In patent US20260325504A1, “Genetically Engineered Human Pituitary Corticotroph Tumor Organoids Exhibit Divergent Responses to Selective Glucocorticoid Receptor Modulators” (Corcept Therapeutics Incorporated, priority 2022, published 2026):
“Also recorded” adds a separate entry of the source.

Experiments:
SSTR2 = assay: Spectral flow cytometry, SSTR2 positive cells, hPITOs; type: cell-based, human; conditions: hPITO, 48 h, FIGS. 9E, F
Text: 1.3 Generation and Culture of Human PitNET Tissue Organoids (hPITOs)
Patients undergoing planned transsphenoidal surgery for PitNETs were identified in the outpatient neuroendocrinology and neurosurgery clinics and collected by the St. Joseph's Hospital and Barrow Neurological Institute Biobank under the collection protocol PHXA-05TS038, and outcomes data protocol PHXA-0004-72-29 with approval of the Institutional Review Board (IRB) and patient consent. De-identified samples were shipped in collection and transport media (Table 3) to the Zavros laboratory (University of Arizona) for processing within 24 hours of collection. Resected PitNET tissues were washed with Dulbeccos Phosphate Buffered Saline (DPBS) supplemented with 1× Penicillin/Streptomycin, 1× Kanamycin and 1× Amphotericin/Gentamycin, minced into smaller pieces, and incubated with digestion buffer (Dulbecco's Modified Eagle Medium/Nutrient Mixture F-12 (DMEM/F12) supplemented with 0.4% Collagenase 2, 0.1% Hyaluronic Acid, 0.03% Trypsin). The tissue was incubated with Accutase (Thermo Fisher Scientific) for a further 5 minutes, and the cells were pelleted and washed with DPBS supplemented with antibiotics. Dissociated cells were then seeded as Matrigel™ domes in culture dishes and overlaid with growth media (Table 4). Media was replaced every 3 days and organoids were harvested for downstream experiments or passaged after 15 days of culture (FIG. 1B).
Sonic Hedgehog (SHH) was withdrawn from the organoid growth media 16 hours prior to treatment. […] The IC50 values used for each hPITO line for each drug were determined based on dose responses (FIG. 12). […]

ACTH = assay: Spectral flow cytometry, ACTH positive cells, iPSCUSP48MV organoids; type: cell-based, human; conditions: 48 h, FIGS. 8C, G
Procedure: Sonic Hedgehog (SHH) was withdrawn from the organoid growth media 16 hours prior to treatment. The experimental treatment groups included: vehicle (Veh), mifepristone (500 nM, Selleckchem S2606), GANT61 (5 μM, Stemcell Technologies 73692), ketoconazole (Keto, 10 μM, Selleckchem S1353), pasireotide (Pas, 100 nM, Target Mol TP2207-SB001), octreotide (Oct, 100 nM, Selleckchem P1017), mifepristone plus GANT61, mifepristone plus Keto, mifepristone plus Pas, relacorilant (500 nM, Corcept Therapeutics CORT125134), relacorilant plus Pas, relacorilant plus Oct, or dexamethasone (Dexa, 100 nM, SIGMA S4902). In the combination treatments, cultures were pretreated with the GANT61, Keto, Pas or Oct for 2 hours prior to treatment with mifepristone or Rela. PitNET tissue derived organoids hPITO36, hPITO37, hPITO38, hPITO39, and hPITO40 were treated with the following experimental conditions: Vehicle (1), pasireotide (2), relacorilant (3), relacorilant & pasireotide (4), mifepristone (5), mifepristone & pasireotide (6). The IC50 values used for each hPITO line for each drug were determined based on dose responses (FIG. 12). All organoid cultures were treated for 48 hours prior to analysis.
The multicolor flow cytometry antibody panel was designed using the Cytek® Full Spectrum Viewer online tool to calculate the similarity index. Organoids were harvested in cold Serum-Free Defined Medium media and incubated with Zombie (BioLegend 423107, 1:100) for 15 minutes in the dark at room temperature, followed by incubation with fluorochrome-conjugated/unconjugated primary surface or cytoplasmic antibodies (Table 6) at 4° C. for 30 minutes. Cells were then washed with Cell Staining Buffer (BioLegend 420-201) and incubated at 4° C. for 30 minutes with secondary antibodies (Table 6). Cells were fixed using Cytofix/Cytoperm™ Fixation/Permeabilization Solution (BD Biosciences 554714) and washed with Fixation/Permeabilization wash buffer according to the recommended protocol. […] Data was acquired using the Cytek® Aurora, analyzed using Cytobank Premium software (Beckman Coulter).

Row | Compound | percentage of SSTR2 positive cells (SSTR2) | ACTH positive cells / ACTH expression (ACTH) | ACTH positive cells / ACTH expression (ACTH; listed as Relacorilant) | magnitude of SSTR2 induction, mifepristone vs relacorilant (SSTR2)
1 | Cn1cc(S(=O)(=O)N2CCC3=Cc4c(cnn4-c4ccc(F)cc4)C[C@]3(C(=O)c3cc(C(F)(F)F)ccn3)C2)cn1 [relacorilant, (R)-(1-(4-fluorophenyl)-6-((1-methyl-1H-pyrazol-4-yl)sulfonyl)-4,4a,5,6,7,8-hexahydro-1H-pyrazolo[3,4-g]isoquinolin-4a-yl) (4-(trifluoromethyl)pyridin-2-yl) methanone] | significant increase | did not significantly increase the number of ACTH-positive cells | did not significantly increase ACTH | –
2 | CC#C[C@]1(O)CC[C@H]2[C@@H]3CCC4=CC(=O)CCC4=C3[C@@H](c3ccc(N(C)C)cc3)C[C@@]21C [mifepristone, 11β-(4-dimethylaminophenyl)-17ß-hydroxy-17α-(1-propynyl)-estra-4,9-dien-3-one] | significant increase | significant induction in the number of ACTH positive cells; also recorded: significantly increased the ACTH expression levels | – | significantly greater than that of relacorilant
